# Reference: patent US10919943B2, “Mutant proteins enabling agrochemical control of plant gene expression” (The Regents of the University of California, priority 2016, dated 2021)
# Tested on: 35S::GFP-cyt-HAB1* and 35S::nuc-PYR1*^-MANDI
# Experiment: Mandipropamid control of protein nuclear localization, transient co-expression, confocal microscopy
# Format: in vivo, N. benthamiana
# Settings: 50 μM mandipropamid, 24 hours; FIG. 13
# Text: To test this idea, we created a nuclear localized version of PYR1*^-MANDI (SEQ ID NO:32) and a cytoplasmically localized GFP-HAB1*(SEQ ID NO:33), co-expressed the two components in N. benthamiana, and subsequently examined the localization of GFP-HAB1* in response to mandipropamid using confocal microscopy. To accomplish this, we cloned PYR1*^-MANDI into the yeast two hybrid vector pAD, generating a GAL4 activation domain fusion to PYR1*^-MANDI. The GAL4 activation domain present in pAD contains a synthetic SV40 nuclear localization signal (NLS) at its N-terminus. […]
# To characterize these components, 35S::GFP-cyt-HAB1* and 35S::nuc-PYR1*^-MANDI were transiently co-expressed in N. benthamiana, as described above, and plants treated with a mock or mandipropamid solution (FIG. 13). […] The leaf tissue was scanned manually by epi-fluorescence to identify patches of GFP^+ cells and then observed by spinning disk confocal microscopy, collecting ˜10 micron deep sections that spanned the entire epidermal cell layer. […] Fluorescence imaging was done using a custom built spinning disk system (Solamere Technology, Inc) with a Yokagawa W1 spinning disk (Yokagawa), EM-CCD camera (Hamamatsu 9100c) and a Nikon Eclipse TE (Nikon) inverted stand. […]
smiles,measurement,value
C#CCOc1ccc(CCNC(=O)C(OCC#C)c2ccc(Cl)cc2)cc1OC (stereo not shown) [mandipropamid],localization of GFP-cyt-HAB1*,predominantly nuclear localization pattern
